Measurements as given in PubChem BioAssay AID330 (DTP/NCI, 2004).
Values joined by “and” are separate entries in the source; they are usually repeats but may differ in a detail not shown here. Equal entries are not always repeated. Inconclusive results and toxic doses are left out. How the source made its calls: active means survival T/C of 150% or more; inactive means T/C below 125% in these data. Bridge positions count the residues as written; N and C are the ends. Peptide text beside a SMILES is read from it. I, II: the chains in the order shown.

System: P388 leukemia ip, CD2F1 mice, survival T/C
Test: NCI In Vivo Anticancer Drug Screen. Data for tumor model P388 Leukemia (intraperitoneal) in CD2F1 (CDF1) mice
Conditions: endpoint: median survival time, higher = longer survival
Summary of the method: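 Mice carrying the transplanted tumor received test compound or vehicle. Survival was recorded in each group, and the value is the treated-group measurement divided by that of the vehicle-treated control group.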

[1] = dose: 50.0 mg/kg/injection, schedule: Q01DX005 (ip), vehicle: Klucel (hydroxypropylcellulose) (HPC)
[2] = dose: 50.0 mg/kg/injection, schedule: Q01DX005 (ip), vehicle: saline with Tween-80
[3] = dose: 100.0 mg/kg/injection, schedule: Q01DX005 (ip), vehicle: saline with Tween-80
[4] = dose: 200.0 mg/kg/injection, schedule: Q01DX005 (ip), vehicle: saline with Tween-80
[5] = dose: 25.0 mg/kg/injection, schedule: Q01DX009 (ip), vehicle: saline with Tween-80
[6] = dose: 50.0 mg/kg/injection, schedule: Q01DX009 (ip), vehicle: saline with Tween-80
[7] = dose: 400.0 mg/kg/injection, schedule: Q04DX003 (ip), vehicle: saline with Tween-80
[8] = dose: 100.0 mg/kg/injection, schedule: Q01DX001 (ip), vehicle: saline with Tween-80
[9] = dose: 200.0 mg/kg/injection, schedule: Q01DX001 (ip), vehicle: saline with Tween-80
[10] = dose: 100.0 mg/kg/injection, schedule: Q01DX009 (ip), vehicle: saline with Tween-80
[11] = dose: 60.0 mg/kg/injection, schedule: Q01DX005 (ip), vehicle: saline with Tween-80
[12] = dose: 120.0 mg/kg/injection, schedule: Q01DX005 (ip), vehicle: saline with Tween-80
[13] = dose: 100.0 mg/kg/injection, schedule: Q01DX005 (ip), vehicle: Klucel (hydroxypropylcellulose) (HPC)
[14] = dose: 200.0 mg/kg/injection, schedule: Q01DX005 (ip), vehicle: Klucel (hydroxypropylcellulose) (HPC)
[15] = dose: 200.0 mg/kg/injection, schedule: Q01DX009 (ip), vehicle: saline with Tween-80
[16] = dose: 100.0 mg/kg/injection, schedule: Q04DX003 (ip), vehicle: saline with Tween-80
[17] = dose: 200.0 mg/kg/injection, schedule: Q04DX003 (ip), vehicle: saline with Tween-80

Measured: T/C

COC(=O)Cc1nc2c(=O)[nH]c(N)nc2[nH]c1=O
inactive: dose: 12.5 mg/kg/injection, schedule: Q01DX005 (ip), vehicle: Klucel (hydroxypropylcellulose) (HPC) 95 % of control | dose: 25.0 mg/kg/injection, schedule: Q01DX005 (ip), vehicle: Klucel (hydroxypropylcellulose) (HPC) 96 % of control | [1] 102 % of control and 104 % of control

Clc1cccc(Cl)c1C(Nc1nc2ccccc2s1)Nc1nc2ccccc2s1
inactive: dose: 50.0 mg/kg/injection, schedule: Q01DX005 (ip), vehicle: Klucel + Tween-80 110 % of control | dose: 100.0 mg/kg/injection, schedule: Q01DX005 (ip), vehicle: Klucel + Tween-80 106 % of control | dose: 200.0 mg/kg/injection, schedule: Q01DX005 (ip), vehicle: Klucel + Tween-80 109 % of control

CC1NC(=O)N(C(C)C)C1=O (configuration not stated)
inactive: [2] 100 % of control | [3] 100 % of control | [4] 106 % of control

O=c1ccc(=O)n(-c2ccccc2)[nH]1
inactive: dose: 6.25 mg/kg/injection, schedule: Q01DX009 (ip), vehicle: saline with Tween-80 114 % of control | dose: 12.5 mg/kg/injection, schedule: Q01DX009 (ip), vehicle: saline with Tween-80 100 % of control | [5] 118 % of control | [6] 119 % of control

NCC(=O)Nc1ccc(O)cc1
inactive: dose: 100.0 mg/kg/injection, schedule: Q01DX009 (ip), vehicle: saline sonified 104 % of control | dose: 100.0 mg/kg/injection, schedule: Q04DX003 (ip), vehicle: saline sonified 110 % of control | dose: 200.0 mg/kg/injection, schedule: Q04DX003 (ip), vehicle: saline sonified 110 % of control | dose: 264.0 mg/kg/injection, schedule: Q04DX003 (ip), vehicle: saline with Tween-80 109 % of control | [7] 109 % of control | dose: 600.0 mg/kg/injection, schedule: Q04DX003 (ip), vehicle: saline with Tween-80 109 % of control

CC/C(C=O)=C\NC(=O)Nc1ccccc1
inactive: [8] 97 % of control | [9] 101 % of control | dose: 400.0 mg/kg/injection, schedule: Q01DX001 (ip), vehicle: saline with Tween-80 98 % of control

CCOC(=O)c1ccc2c(c1)C(C)(SC)C(=O)N2 (configuration not stated)
inactive: [5] 96 % of control | [6] 100 % of control | [10] 93 % of control

O=C(OCCO)N1CCN(C(=O)OCCO)CC1
inactive: dose: 50.0 mg/kg/injection, schedule: Q01DX009 (ip), vehicle: saline 101 % of control | dose: 100.0 mg/kg/injection, schedule: Q01DX009 (ip), vehicle: saline 103 % of control | dose: 200.0 mg/kg/injection, schedule: Q01DX009 (ip), vehicle: saline 101 % of control | dose: 400.0 mg/kg/injection, schedule: Q01DX009 (ip), vehicle: saline 98 % of control

COCC(O)Cn1ccnc1N=Nc1ccccc1 (configuration not stated)
inactive: [11] 103 % of control | [12] 102 % of control

O=C1C=CC(=O)[C@H]2CC=C3OC4OC5(CCCCC5)OC4[C@H]3[C@@H]12 (some centres not stated)
inactive: [12] 94 % of control | dose: 240.0 mg/kg/injection, schedule: Q01DX005 (ip), vehicle: saline with Tween-80 97 % of control

CC1(C)CC(Nc2ccccc2)=CC(=S)N1
inactive: [1] 100 % of control | [13] 103 % of control | [14] 100 % of control

COc1ccc2sc3c(C)ccc(NCCC4CCCN5CCCCC45)c3c(=O)c2c1 (configuration not stated)
inactive: [8] 87 % of control | [9] 87 % of control

CC(C)CC(NC(=O)C(N)CSSCC(N)C(=O)NC(CC(C)C)C(=O)O)C(=O)O (stereo not drawn) (I: H-Cys-Leu-OH / II: H-Cys-Leu-OH; disulfide I:1-II:1; configuration not given here)
inactive: [1] 106 % of control | [13] 113 % of control | [14] 92 % of control

Cc1ccc(NC(=O)Oc2ccc(Cl)cc2)c([N+](=O)[O-])c1
inactive: [6] 109 % of control | [10] 100 % of control | [15] 105 % of control

NCC1CC2CCC1CC2 (configuration not stated)
inactive: dose: 12.5 mg/kg/injection, schedule: Q01DX005 (ip), vehicle: saline with Tween-80 99 % of control | dose: 25.0 mg/kg/injection, schedule: Q01DX005 (ip), vehicle: saline with Tween-80 100 % of control | [2] 100 % of control and 102 % of control

c1ccc([P+]23OCCN2CCO3)cc1
inactive: [16] 104 % of control | [17] 98 % of control | [7] 102 % of control

CN(C)C1C[C@@H](O[Si](C)(C)C(C)(C)C)C=C1S(=O)(=O)c1ccccc1 (some centres not stated)
inactive: dose: 60.0 mg/kg/injection, schedule: Q01DX005 (ip), vehicle: Klucel (hydroxypropylcellulose) (HPC) 87 % of control

Sc1ccccc1.[Ag]
inactive: [5] 97 % of control | [6] 105 % of control | [10] 96 % of control

COc1ccc(OC)c(N2C(=O)C(Cl)=C(Cl)C2=O)c1
inactive: dose: 12.5 mg/kg/injection, schedule: Q01DX001 (ip), vehicle: saline with Tween-80 100 % of control | dose: 25.0 mg/kg/injection, schedule: Q01DX001 (ip), vehicle: saline with Tween-80 100 % of control | dose: 50.0 mg/kg/injection, schedule: Q01DX001 (ip), vehicle: saline with Tween-80 114 % of control

CSc1nc(Cl)cc(Sc2nc(N)nc3nc[nH]c23)n1
inactive: dose: 12.5 mg/kg/injection, schedule: Q01DX009 (ip), vehicle: Klucel (hydroxypropylcellulose) (HPC) 98 % of control | dose: 25.0 mg/kg/injection, schedule: Q01DX009 (ip), vehicle: Klucel (hydroxypropylcellulose) (HPC) 101 % of control and 107 % of control | dose: 50.0 mg/kg/injection, schedule: Q01DX009 (ip), vehicle: Klucel (hydroxypropylcellulose) (HPC) 123 % of control and 124 % of control

C=C(C)C(=O)OCCN(CC)CC
inactive: [2] 100 % of control | [3] 99 % of control | [4] 100 % of control

CC[n+]1c([S-])nn(C)c1-c1cnccn1
inactive: [2] 106 % of control | [3] 108 % of control | [4] 102 % of control

COc1nc(N)c2cnn(C3CCCCO3)c2n1 (configuration not stated)
inactive: dose: 100.0 mg/kg/injection, schedule: Q04DX002 (ip), vehicle: saline with Tween-80 99 % of control | dose: 200.0 mg/kg/injection, schedule: Q04DX002 (ip), vehicle: saline with Tween-80 96 % of control | dose: 400.0 mg/kg/injection, schedule: Q04DX002 (ip), vehicle: saline with Tween-80 101 % of control

O=C1NC(=O)C(C2CC2)(C2CC2)N1
inactive: [2] 103 % of control | [3] 101 % of control | [4] 101 % of control

Cc1cccc(C(=O)C(CN(C)C)CN(C)C)c1
inactive: dose: 12.5 mg/kg/injection, schedule: Q01DX005 (ip), vehicle: saline 112 % of control | dose: 25.0 mg/kg/injection, schedule: Q01DX005 (ip), vehicle: saline 114 % of control

COc1cccc(NCNC2Nc3ccccc3N2)c1
inactive: dose: 15.0 mg/kg/injection, schedule: Q01DX005 (ip), vehicle: saline with Tween-80 106 % of control | dose: 30.0 mg/kg/injection, schedule: Q01DX005 (ip), vehicle: saline with Tween-80 107 % of control | [11] 107 % of control

CN(C)Cc1nc2sc3c(c2c(=O)[nH]1)CCCC3
inactive: [6] 106 % of control | [10] 108 % of control | [15] 103 % of control

Cc1nc2ncn(-c3ccccc3)c2c(=O)n1Cc1ccco1
inactive: [1] 103 % of control | [13] 103 % of control | [14] 95 % of control

O=S(=O)(O)C(O)c1cccc(Cl)c1 (configuration not stated)
inactive: dose: 100.0 mg/kg/injection, schedule: Q04DX003 (ip), vehicle: saline 100 % of control | dose: 200.0 mg/kg/injection, schedule: Q04DX003 (ip), vehicle: saline 110 % of control | dose: 400.0 mg/kg/injection, schedule: Q04DX003 (ip), vehicle: saline 103 % of control

Clc1ccc(CSSC(Cl)(Cl)Cl)cc1
inactive: dose: 50.0 mg/kg/injection, schedule: Q01DX005 (ip), vehicle: acetone 102 % of control | dose: 100.0 mg/kg/injection, schedule: Q01DX005 (ip), vehicle: acetone 105 % of control | dose: 200.0 mg/kg/injection, schedule: Q01DX005 (ip), vehicle: acetone 107 % of control

[Br][Sn]([CH2][Sn]([Br])([c]1ccccc1)[c]1ccccc1)([c]1ccccc1)[c]1ccccc1
inactive: dose: 6.25 mg/kg/injection, schedule: Q01DX005 (ip), vehicle: Klucel (hydroxypropylcellulose) (HPC) 110 % of control

Cn1c2c(c(=O)c3c4[nH]c5c(c(=O)c4ccc31)CCCC5)CCCC2
inactive: [1] 108 % of control | dose: 50.0 mg/kg/injection, schedule: Q04DX003 (ip), vehicle: saline with Tween-80 103 % of control | [13] 101 % of control | [16] 103 % of control and 96 % of control | [14] 94 % of control | [17] 99 % of control | [7] 100 % of control and 94 % of control
